Data on 75 compounds can be found in PubChem BioAssay AID179 (DTP/NCI, 2004).

The test has as its system CEM cells HIV-1 protection, formazan growth assay. Description: NCI AIDS Antiviral Assay. The settings on record: for IC50: measured here: growth of uninfected CEM cells. In outline: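 Protection of CEM cells against HIV-1 measured as cell growth via soluble formazan read-out, with five concentrations tested on both infected and uninfected cells; failure to protect may reflect toxicity.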

Calls of active or inactive are those of the source.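 Rule for the calls: active = compounds giving half or more protection of infected cells from virus-caused growth loss, again on retest; inactive = the rest.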 Where a SMILES comes first, the peptide text is derived from it.

In general, EC50 refers to the concentration at which the effect is half-maximal. As a reminder, the IC50 is the concentration at which inhibition is half-maximal. A high value points to weaker potency in that assay. For `OCC(O)C1OC(c2ccco2)OC(CO)C1O` (stereo not drawn), the EC50 is over 200 µM and the IC50 was over 200 µM. As for `CC(=O)/C=C/c1ccco1`, the EC50 was over 26.3 µM and the IC50 is over 26.3 µM. `C=C(CC/C=C\CO)[Si](C)(C)C`: the EC50 is over 141 µM and the IC50 was over 141 µM. Turning to `C/C(=N\NC(=O)c1ccncc1)c1cccc(F)c1`, the EC50 is over 195 µM and the IC50 is over 195 µM. In the case of `COc1ccc(OC)c(C[P+](c2ccccc2)(c2ccccc2)c2ccccc2)c1`, the EC50 was over 200 µM and the IC50 is 1.2 µM. Regarding `O=c1oc2ccccc2c(O)c1C(c1cccc(C(c2c(O)c3ccccc3oc2=O)c2c(O)c3ccccc3oc2=O)c1)c1c(O)c2ccccc2oc1=O`, the EC50 was 42.7 µM and the IC50 is over 100 µM. For the compound `C[Si](C)(C)C#C[I+]c1ccccc1`, the result was inactive.

On to `CC(=O)NCC1OC2COC(c3ccccc3)OC2C2N=C(c3ccccc3)OC12` (stereo not drawn), for which the outcome was inactive.

Take `NC(=O)C1=Cc2cccn2-c2ccccc2S1`: the EC50 is over 123 µM and the IC50 was found to be 56.2 µM. Regarding `Cc1nc2ccc(Cl)cc2c(Cl)c1CCCl`, the EC50 is over 200 µM and the IC50 stood at 10.7 µM. Regarding `C(=Nc1ccc(SSc2ccc(N=C=C(c3ccccc3)c3ccccc3)cc2)cc1)=C(c1ccccc1)c1ccccc1`, the EC50 is over 200 µM and the IC50 is over 200 µM. `Cn1ccnc1CCc1ccc(F)cc1F`: the EC50 was over 200 µM and the IC50 is over 200 µM. `CCC[CH2][Sn]1([CH2]CCC)[O]CC(CN(C)Cc2ccccc2)[O]1` (stereo not drawn): the EC50 is over 20.9 µM and the IC50 was 0.138 µM.

In the case of `CCCCCCCCCCCCCCCC(=O)NCC(COP(=O)([O-])OCC[N+](C)(C)C)OC` (stereo not drawn), the result was inactive. Turning to `Cn1c2ccccc2c2ccc3c(c21)C(=O)C=CC3=O`, the EC50 is over 100 µM and the IC50 was determined as 1.35 µM.

With `COc1cc2ccc(=O)oc2cc1O`, the EC50 is over 339 µM and the IC50 turned out to be 55 µM. As to `O=C1NC(=O)C(=Nc2cccc3c(=O)[nH][nH]c(=O)c23)C(c2nc3ccccc3s2)C1=O` (stereo not drawn), the outcome was inactive. For `CCOC(=O)c1ccc(NC(=O)Nc2cc(C)ccn2)cc1`, the EC50 is over 200 µM and the IC50 was over 200 µM. As for `CCOC(=O)c1nc(SC)sc1NC(=O)c1ccc(OC)cc1`, the EC50 was 162 µM and the IC50 was over 200 µM. On to `COc1cc2c3c(c1OC)C(=O)C(=O)C1=C3N(CCC1)CC2`, for which the result was inactive.

As to `CC1=Nc2ccccc2C12C(c1ccccc1)C(c1ccccc1)C(=O)N1c3ccccc3CC12` (stereo not drawn), the EC50 is over 79.4 µM and the IC50 was over 79.4 µM. Turning to `Cc1cc(S(=O)(=O)Nc2nc(N)nc(N3CCOCC3)n2)c(S)cc1Cl`, the EC50 was 61.7 µM and the IC50 is over 200 µM. Consider `CN1CC=C(C#CC(C)(C)O)CC1`, for which the EC50 was over 200 µM and the IC50 is over 200 µM.

Consider `C=C[C@@H]1C(CO)=CCC2[C@H]1CCC1C(C)(C)C(=O)CC[C@]21C` (stereo partly drawn), for which the EC50 is over 200 µM and the IC50 is over 200 µM.

As to `c1ccc(CCN(Cc2nc3ccccc3[nH]2)Cc2nc3ccccc3[nH]2)cc1`, the EC50 was over 200 µM and the IC50 was 10.5 µM. Turning to `CN(C)c1ncnc2c1ncn2C1OC(CO)C(O)C1O` (stereo not drawn), the outcome was inactive. Take `O=C(O)CCNc1ccc2c(c1)B(O)OC2`: the EC50 is over 692 µM and the IC50 is over 692 µM. Regarding `COc1ccc(C2=NN(C(C)=O)c3nc4ccccc4nc3O2)cc1`, the result was inactive. With `CC(=O)C(N=Nc1ccc(S(=O)(=O)Nc2onc(C)c2C)cc1)C(=O)Nc1cc(C)cc(C)c1` (stereo not drawn), the EC50 was over 200 µM and the IC50 worked out at 30.2 µM. The corresponding values for `CN(C)c1ccc(/C=C(\C#N)c2cccc(F)c2)cc1` are over 2 µM and 0.141 µM. In the case of `Nc1nc(N)c(Br)c(Nc2ccc(Cl)c(Cl)c2)n1`, the EC50 is 52.5 µM and the IC50 was 155 µM. Turning to `CN(C)c1ccc(N=C2C=CC(=C(C#N)C#N)c3ccccc32)cc1`, the outcome was inactive. For `CC(=O)C1C(=O)C(=O)N(c2ccccc2)C1=O` (stereo not drawn), the EC50 was over 200 µM and the IC50 was over 200 µM.

For the compound `C[N+]12CCC(c3ccccc3)(CC1)C(O)C2` (stereo not drawn), the EC50 was over 832 µM and the IC50 worked out at 741 µM. With `CCC1CN2CCc3cc(OC)c(OC)cc3C2CC1CC1c2cc(OC)c(OC)cc2CCN1C(=O)C1CCCN1C(=O)OCc1ccccc1` (stereo not drawn), the outcome was inactive.

Turning to `CCOC(=O)C1(C(N)=O)C(=O)c2ccncc2C1=O` (stereo not drawn), the EC50 is over 200 µM and the IC50 was over 200 µM. Take `CC(C)CCC[C@@H](C)C1CCC2[C@@H]3CCC4C[C@@H](CC/C=C/CC[C@H]5CC[C@@]6(C)C(CC[C@@H]7C6CC[C@@]6(C)C7CCC6[C@H](C)CCCC(C)C)C5)CC[C@]4(C)C3CC[C@@]21C` (stereo partly drawn): the EC50 is over 9.55 µM and the IC50 was over 9.55 µM. Regarding `CC(=O)OCCCOCn1c(Cc2ccccc2)c(C(C)C)c(=O)[nH]c1=O`, the EC50 was 0.0794 µM and the IC50 was determined as 89.1 µM. As to `Nc1ncnc2sc(Nc3ccccc3)nc12`, the EC50 was over 53.7 µM and the IC50 stood at 33.1 µM. Turning to `CN(C)c1nc(N(C)C)n2c(-c3ccccc3[N+](=O)[O-])nnc2n1`, the EC50 is over 60.3 µM and the IC50 is 41.7 µM.

For `O=C1NC23CC=CCC12CCC3` (stereo not drawn), the EC50 is over 1230 µM and the IC50 is over 1230 µM. Turning to `CCOC(=O)/C(=C\c1ccnc2ccccc12)P(=O)(OCC)OCC`, the EC50 is over 200 µM and the IC50 was 3.31 µM.

Take `Cc1cc(=O)cc2sc3c(C)cccc3nc1-2`: the EC50 was over 30.2 µM and the IC50 is over 30.2 µM.

Take `O=c1[nH]c(=O)n(C2CC(O)C(COP(=O)(On3nnc4ccccc43)N3CCCCC3)O2)cc1F` (stereo not drawn): the EC50 was over 200 µM and the IC50 stood at 0.0631 µM. With `CCN(CC)C(=O)C(C)n1cc(C)c(=O)[nH]c1=O` (stereo not drawn), the EC50 was over 977 µM and the IC50 was over 977 µM. For `Cc1noc(NS(=O)(=O)c2ccc(N)cc2)c1C`, the EC50 was over 200 µM and the IC50 was over 200 µM. Take `C[Si](C)(C)C#CC(O)CS(=O)c1ccccc1` (stereo not drawn): the EC50 was over 200 µM and the IC50 came to 105 µM. The corresponding values for `CC(CN1CCCCC1)SSC(C)CN1CCCCC1` (stereo not drawn) are over 200 µM and 24 µM. In the case of `C/C=C/COC(=O)CO[N+](=O)[O-]`, the result was inactive. For the compound `CN(C)C=Nc1cccc2nsnc12`, the EC50 is over 200 µM and the IC50 is over 200 µM. On to `O=C(C/C(=N/O)C(F)(F)F)c1cccs1`, for which the EC50 is over 200 µM and the IC50 is over 200 µM. For `Cc1cc(C(=O)N2CCN(Cc3ccccc3)CC2)c(C)o1`, the EC50 is over 741 µM and the IC50 is 324 µM. As to `CCOC(=O)/C(=C\c1c[nH]c2ccccc12)P(=O)(OCC)OCC`, the EC50 was over 200 µM and the IC50 was found to be 38 µM. The like results for `Cn1c2ccccc2c2[nH]c3ccccc3c(=O)c21` were, in that order, over 200 µM and 13.8 µM.

On to `CCOCC(=O)N[C@H]1CCc2cc(OC)c(OC)c(OC)c2-c2ccc(OC)c(=O)cc21`, for which the EC50 was over 2 µM and the IC50 amounted to 0.00347 µM. Take `CC1(Br)OC(=O)C(C)(Br)OC1=O` (stereo not drawn): the EC50 was over 200 µM and the IC50 is over 200 µM. On to `COc1cc(/C=N\NS(=O)(=O)c2ccc([N+](=O)[O-])cc2)c([N+](=O)[O-])cc1OC`, for which the EC50 was over 33.1 µM and the IC50 was over 33.1 µM. For `Nc1ncnc2c1ncn2COC/C=C/I`, the EC50 was over 204 µM and the IC50 came to 155 µM. On to `CC(=O)Oc1cc(S(=O)(=O)Nc2n[nH]c(Nc3ccc(C)cc3)n2)c(S)cc1Cl`, for which the EC50 was 155 µM and the IC50 amounted to 263 µM. As for `Cc1ccc2c(c1)-c1c(C#N)c(N)nc(-c3ccccc3)c1CCS2(=O)=O`, the EC50 is over 200 µM and the IC50 was determined as 2.09 µM.

As for `OC1C2CCCCN2C[C@@H](O)[C@H]1O` (stereo partly drawn), the EC50 is over 200 µM and the IC50 was over 200 µM. With `CCOC(=O)CC(=O)N(c1ccc(OC)cc1)C(C(=O)OC)c1ccccc1` (stereo not drawn), the EC50 is over 200 µM and the IC50 amounted to 166 µM.

As to `O=C(N[C@@H](c1ccccc1)[C@@H](O)C(=O)OCc1ccc([N+](=O)[O-])cc1)c1ccccc1`, the EC50 was over 200 µM and the IC50 was found to be 151 µM. Regarding `O=C(OC[C@H]1OCC(=O)C2(OC(=O)c3ccccc3)C3C=CC(C3)C12)c1ccccc1` (stereo partly drawn), the outcome was inactive.

On to `CC1(C)COC(=O)N1`, for which the EC50 was over 1550 µM and the IC50 is over 1550 µM. Consider `Clc1ccccc1C1=NN(c2ccccc2)C2c3cc(Br)ccc3OCC12` (stereo not drawn), for which the EC50 is over 81.3 µM and the IC50 is over 81.3 µM. With `O=C1NC(c2ccc(O)cc2)C2CCC1C2` (stereo not drawn), the EC50 was over 1150 µM and the IC50 turned out to be 955 µM. Take `COc1ccc(CC(=O)c2cc(OC)c(OC)cc2C)cc1OC`: the EC50 was over 398 µM and the half-inhibitory concentration (IC50) was 30.9 µM. As for `CO/C=C/CCCO`, the EC50 is over 2140 µM and the IC50 was over 2140 µM. As for `Clc1ccc(SCCCCCCCCCCSc2ccc(Cl)cc2)cc1`, the EC50 was over 23.4 µM and the IC50 was over 23.4 µM. As for `COC1/C=C/OC2(C)Oc3c(C)c(O)c4c(O)c(c(/C=N/N(C)c5ncnc6c5ncn6C5OC(CO)C(O)C5O)c(O)c4c3C2=O)NC(=O)C(C)=C/C=C/C(C)C(O)C(C)C(O)C(C)C(OC(C)=O)C1C` (stereo not drawn), the EC50 was over 200 µM and the IC50 came to 110 µM.

For the compound `Cn1c(=O)c(-c2ccccc2)c(O)c2ccccc21`, the EC50 is over 200 µM and the IC50 is over 200 µM. For the compound `O=[N+]([O-])c1ccc(-c2ccc(C3=Nn4c(nnc4-c4ccc(Cl)cc4)SC3)o2)cc1`, the EC50 was over 1.74 µM and the IC50 was over 1.74 µM.

With `CC(=O)OCC(CC[CH2][Sn]([Cl])([Cl])[c]1ccccc1)OC(C)=O` (stereo not drawn), the result was inactive. As to `CC(C)(C)OC(=O)NCC(=O)NCC(=O)NCC(=O)NCC(=O)O` (HELM PEPTIDE1{[CC(C)(C)OC(=O)[*:2]].G.G.G.G}$$$$V2.0), the EC50 was over 724 µM and the IC50 is over 724 µM.
